Patent publication US11279702B2, “AMPK activators” (Kallyope, Inc., priority 2020, dated 2022)

Key:
[1] = biological target: Recombinant AMPK α1/β1/γ1 complex (Homo sapiens (Human), UniProt Q13131+Q9Y478); test: In vitro pAMPK1 kinase activation assay (ADP-Glo, SAMS peptide); assay type: biochemical; conditions: for EC50: AMPK α1/β1/γ1 pre-activated with CAMKK2, 12-point curve; for activation at 10 µM: relative to reference compound MK-8722
Description: Compound effect on AMPK enzyme activation was determined in a cell-free format with a 12-point concentration curve. The ADP-Glo detection system was used to determine phosphorylation of a SAMS peptide substrate. Recombinant AMPK α1/β1/γ1 complex was pre-activated by phosphorylation with CAMKK2 followed by incubated with compound for 15 minutes prior to the SAMS phosphorylation reaction. Activity curves and EC50 values were fitted by interpolation to an ATP:ADP standard curve as indicated by the ADP-Glo manufacturer using Prism software. Activity at 10 μM is reported relative to a reference compound, MK-8722 (Science 2017, 357(6350):507-511).

[2] = Pharmacokinetics (oral bioavailability, IV parameters); conditions: mouse, in vivo; C57BL/6 mice, IV 1 mg/kg, PO 30 mg/kg
Description: Compounds were tested for pharmacokinetics in C57BL/6 mice. Compounds 2, 4, and A1 were dosed IV at 1 mg/kg as a formulation of 0.5 mg/mL in 5% DMSO+30% PEG400+65% water and PO at 30 mg/kg as a formulation of 6 mg/mL in 0.25% MC+5% Tween 80+0.02% SDS. Compound 1 was dosed IV at 1 mg/kg as a formulation of 0.50 mg/mL in 5% DMSO+30% PEG400+65% water and PO at 30 mg/kg as a formulation of 6 mg/mL in 0.5% MC+0.5% Tween 80.

[3] = tested on: Mouse In Vivo Chemotherapy-Induced Intestinal Injury Model; test: Diarrhea in chemotherapy (5FU)-induced intestinal injury model; parameters: species or system BALB/c mice; conditions: 30 mg/kg BID
Description: Compounds were formulated in vehicle (0.25% methyl cellulose, 5% Tween 80, 0.02% sodium dodecyl sulfate (SDS) in Hanks' Buffered Salt Solution with Ca2+ and Mg2+). On day 1, either saline or a 400 mg/kg dose of 5-fluorouracil (5FU) in saline was administered by intraperitoneal injection to BALB/c mice. Starting on day 2, vehicle or compound was administered once or twice a day by oral gavage. In some instances, compound was also administered once or twice a day by oral gavage from day −3 to day −1 (pre-5FU). From days 5 to 6 post-5FU, the animals were scored for diarrhea severity once a day. The diarrhea was scored 0-3 as follows: 0—normal consistency (black and solid), 1—soft (black and a bit lighter/yellow), 2—loosely shaped stool (yellowish and somewhat watery), 3—extreme diarrhea (very watery). Day 5 and day 6 diarrhea scores following administration of certain compounds were lower than vehicle control mice. […] In addition, Compound 1 was efficacious at doses as low as 3 mg/kg BID (6 mg/kg total daily dose).

[4] = biological target: BCRP (Homo sapiens (Human), UniProt Q9UNQ0); test: in vitro; assay type: in vitro ADME
Chain of BCRP (Q9UNQ0 whole entry): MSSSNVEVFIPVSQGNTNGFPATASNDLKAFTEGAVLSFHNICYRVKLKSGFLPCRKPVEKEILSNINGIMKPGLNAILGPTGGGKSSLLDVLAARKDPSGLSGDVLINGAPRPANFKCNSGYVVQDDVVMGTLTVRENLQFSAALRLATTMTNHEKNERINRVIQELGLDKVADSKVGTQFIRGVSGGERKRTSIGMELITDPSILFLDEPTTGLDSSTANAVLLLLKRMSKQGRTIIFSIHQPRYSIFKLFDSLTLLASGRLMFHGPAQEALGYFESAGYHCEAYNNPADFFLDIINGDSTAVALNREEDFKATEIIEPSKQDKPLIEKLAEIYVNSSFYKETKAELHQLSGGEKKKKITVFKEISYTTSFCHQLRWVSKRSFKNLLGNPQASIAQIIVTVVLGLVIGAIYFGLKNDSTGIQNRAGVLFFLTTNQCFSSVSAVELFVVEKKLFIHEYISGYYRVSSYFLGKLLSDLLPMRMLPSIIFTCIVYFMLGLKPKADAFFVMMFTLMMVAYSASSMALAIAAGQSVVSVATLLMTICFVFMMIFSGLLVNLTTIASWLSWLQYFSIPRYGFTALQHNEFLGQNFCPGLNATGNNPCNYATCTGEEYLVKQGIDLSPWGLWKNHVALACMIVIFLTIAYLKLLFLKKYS
Description: Caco-2 cells purchased from ATCC were seeded onto […] (PET) in 96-well BD Insert plates at 1×10^5 cells/cm^2, and refreshed medium every 4-5 days until to the 21st to 28th day for confluent cell monolayer formation. The transport buffer in the study was HBSS with 10 mM HEPES at pH 7.40±0.05. Compounds were tested at 2 μM in the presence or absence of 30 μM novobiocin bi-directionally in duplicate. E3S was tested at 5 μM in the presence or absence of 30 μM novobiocin bi-directionally in duplicate, while nadolol and metoprolol were tested at 2 μM in the absence of novobiocin in A to B direction in duplicate. Final DMSO concentration was adjusted to less than 1%. The plate was incubated for 2 hours in CO2 incubator at 37+1° C., with 5% CO2 at saturated humidity without shaking. All samples were mixed with acetonitrile containing internal standard and were centrifuged at 4000 rpm for 10 min. Subsequently, 100 μL supernatant solution was diluted with 100 μL distilled water for LC/MS/MS analysis. Concentrations of test and control compounds in starting solution, donor solution, and receiver solution were quantified by LC/MS/MS, using peak area ratio of analyte/internal standard.

[5] = tested on: Acetyl CoA Carboxylase (ACC) Phosphorylation in Mouse Muscle; test: Level of ACC phosphorylation in mouse muscle; assay type: in vivo, C57BL/6J mice
Description: Systemic AMPK target engagement in vivo can be assessed by measuring the site-specific phosphorylation of a direct AMPK substrate, acetyl-coenzyme A carboxylase (ACC), in a well perfused tissue such as muscle.
Compounds were formulated in vehicle (0.25% methyl cellulose, 5% Tween 80, 0.02% sodium dodecyl sulfate (SDS) in Hanks' Buffered Salt Solution with Ca^2+ and Mg^2+). Male C57BL/6J mice were administered vehicle or compound once daily for 5 days. On the final day of dosing (day 1 for acute assessment, day 5 for sub-chronic assessment), mice were euthanized by cervical dislocation five hours post dose and samples of skeletal muscle (gastrocnemius) were removed and snap frozen in liquid nitrogen.
Frozen muscle tissues were homogenized. Homogenates were analyzed for protein concentration and equal amounts of protein were assayed for total and phosphorylated ACC (p-ACC) levels using Meso Scale Discovery's Multi-array assay kit. The ratio of p-ACC/total ACC was determined for each sample.

Chain of Recombinant AMPK α1/β1/γ1 complex (Q13131 whole entry): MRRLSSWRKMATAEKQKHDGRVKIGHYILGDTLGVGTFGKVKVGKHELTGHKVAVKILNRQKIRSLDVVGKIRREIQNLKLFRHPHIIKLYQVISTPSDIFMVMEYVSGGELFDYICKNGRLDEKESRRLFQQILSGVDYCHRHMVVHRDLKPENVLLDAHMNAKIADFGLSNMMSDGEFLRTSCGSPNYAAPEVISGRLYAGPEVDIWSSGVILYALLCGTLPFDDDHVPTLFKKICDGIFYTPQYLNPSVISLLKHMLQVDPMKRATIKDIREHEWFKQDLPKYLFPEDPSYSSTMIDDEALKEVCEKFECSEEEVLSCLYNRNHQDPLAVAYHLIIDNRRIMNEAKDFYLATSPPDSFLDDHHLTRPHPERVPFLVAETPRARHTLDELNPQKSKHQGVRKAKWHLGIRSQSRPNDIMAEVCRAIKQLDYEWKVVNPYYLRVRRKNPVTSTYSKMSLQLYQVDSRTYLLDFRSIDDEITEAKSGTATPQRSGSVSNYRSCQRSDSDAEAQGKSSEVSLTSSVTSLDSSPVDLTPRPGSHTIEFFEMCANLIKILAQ
Chain of Recombinant AMPK α1/β1/γ1 complex (Q9Y478 whole entry): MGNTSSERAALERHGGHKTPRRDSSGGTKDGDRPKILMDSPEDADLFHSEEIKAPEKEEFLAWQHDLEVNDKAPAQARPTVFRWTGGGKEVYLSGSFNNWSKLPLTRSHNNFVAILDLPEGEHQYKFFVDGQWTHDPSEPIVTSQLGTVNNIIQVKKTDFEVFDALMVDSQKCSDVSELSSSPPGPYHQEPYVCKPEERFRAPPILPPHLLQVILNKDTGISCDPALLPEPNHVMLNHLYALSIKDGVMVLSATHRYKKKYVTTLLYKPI
Chain of Recombinant AMPK α1/β1/γ1 complex (P54619 whole entry partner): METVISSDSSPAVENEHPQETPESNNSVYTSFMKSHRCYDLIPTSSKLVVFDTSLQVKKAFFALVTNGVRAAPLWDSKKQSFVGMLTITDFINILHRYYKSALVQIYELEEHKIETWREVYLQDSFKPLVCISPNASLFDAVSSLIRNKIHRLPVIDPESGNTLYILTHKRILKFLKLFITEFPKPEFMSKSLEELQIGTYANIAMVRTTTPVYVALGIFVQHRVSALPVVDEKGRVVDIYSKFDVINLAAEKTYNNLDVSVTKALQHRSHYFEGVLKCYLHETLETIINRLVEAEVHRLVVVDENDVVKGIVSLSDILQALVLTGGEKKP

Which EC50 [1] does the source give for O=P(O)(O)CSc1nc2nc(-c3ccc(-c4ccccc4O)cc3)c(Cl)cc2[nH]1 [Compound 4, (((6-chloro-5-(2′-hydroxy-[1,1′-biphenyl]-4-yl)-1H-imidazo[4,5-b]pyridin-2-yl)thio)methyl)phosphonic Acid] here?
The EC50 was 0.55 nM.

What about the activation at 10 µM [1] of the same compound?
The activation at 10 µM was 28%.

What about the bioavailability [2] of the same compound?
The bioavailability was < 1%.

What about the “Diarrhea Score % Change vs. Vehicle” value ([3]; Day 5) of the same compound?
Its value is −58%.

What about the “Diarrhea Score” value ([3]; Day 5, score 0-3) of the same compound?
The value was 0.37.

What about the “Diarrhea Score % Change vs. Vehicle” value ([3]; Day 6) of the same compound?
The value was −65%.

And the “Diarrhea Score” value ([3]; Day 6, score 0-3)?
The value was 0.63.

For CC(C)(C)CCc1ccc(-c2ccc(-c3nc4nc(SCC(=O)O)[nH]c4cc3Cl)cc2)c(O)c1 [Compound 6, 2-((6-chloro-5-(4′-(3,3-dimethylbutyl)-2′-hydroxy-[1,1′-biphenyl]-4-yl)-1H-imidazo[4,5-b]pyridin-2-yl)thio)acetic Acid], which EC50 [1] is on record?
The EC50 was 1120 nM.

And the activation at 10 µM [1]?
Its activation at 10 µM is 18%.

Which results are given for C[C@]12CC[C@@H]3c4ccc(OS(=O)(=O)O)cc4CC[C@H]3[C@@H]1CCC2=O [Compound E3S, reference compound]?
Efflux Ratio ([4]; Caco-2): 36.79; Mean Recovery (%) A to B ([4]; Caco-2): 76.60%; Mean Recovery (%) B to A ([4]; Caco-2): 98.34%

Which results are given for CCOP(=O)(O)CSc1nc2nc(-c3ccc(-c4ccccc4O)cc3)c(Cl)cc2[nH]1 [Compound 3, ethyl hydrogen (((6-chloro-5-(2′-hydroxy-[1,1′-biphenyl]-4-yl)-1H-imidazo[4,5-b]pyridin-2-yl)thio)methyl)phosphonate]?
EC50 [1]: 2.38 nM; activation at 10 µM [1]: 49%

What does the source list for O=C(O)CSc1nc2nc(-c3ccc(N4CC[C@H](O)C4)cc3)c(Cl)cc2[nH]1 [Compound 7, (S)-2-((6-chloro-5-(4-(3-hydroxypyrrolidin-1-yl)phenyl)-1H-imidazo[4,5-b]pyridin-2-yl)thio)acetic Acid]?
EC50 [1]: 43 nM; activation at 10 µM [1]: 42%

Which results are given for O=C(O)CSc1nc2nc(-c3ccc(-c4ccc(-n5cncn5)cc4)cc3)c(Cl)cc2[nH]1 [Compound 8, 2-((5-(4′-(1H-1,2,4-triazol-1-yl)-[1,1′-biphenyl]-4-yl)-6-chloro-1H-imidazo[4,5-b]pyridin-2-yl)thio)acetic Acid]?
EC50 [1]: 20 nM; activation at 10 µM [1]: 39%

For CC(C)(C)NCC(O)COc1cccc2c1CC(O)C(O)C2 (stereo not drawn) [nadolol, reference compound], which “Mean Papp (10^−6 cm/s) A to B” value ([4]; Caco-2) is on record?
The value was 0.11 10^−6 cm/s.

And the “Mean Recovery (%) A to B” value ([4]; Caco-2)?
Its value is 99.73%.

For O[C@@H]1CO[C@H]2[C@@H]1OC[C@H]2Oc1nc2cc(Cl)c(-c3ccc(-c4ccccc4)cc3)cc2[nH]1 [MK-8722, reference compound], which “% p-ACC/ACC ratio change vs. Vehicle, Sub-chronic (5 days)” value ([5]; 30 mg/kg once daily for 5 days, five hours post dose, gastrocnemius) is on record?
Its value is 259.0%.

And the “% p-ACC/ACC ratio change vs. Vehicle, Acute (5 hr)” value ([5]; 30 mg/kg, day 1, five hours post dose, gastrocnemius)?
Its value is 275.7%.

What about the “ratio of pACC/total ACC compared with vehicle control mice” value ([5]; 30 mg/kg, one-way ANOVA vs vehicle (Dunnett's post-test)) of the same compound?
Its value is “significantly higher”.

Which EC50 [1] does the source give for O=C(O)CSc1nc2nc(-c3ccc(-c4ccc(-n5cncn5)cc4O)cc3)c(Cl)cc2[nH]1 [Compound 9, 2-((6-chloro-5-(2′-hydroxy-4′-(1H-1,2,4-triazol-1-yl)-[1,1′-biphenyl]-4-yl)-1H-imidazo[4,5-b]pyridin-2-yl)thio)acetic Acid] here?
The EC50 was 1.1 nM.

And the activation at 10 µM [1]?
The activation at 10 µM was 51%.

Which Papp A→B at 2 h, 2 μM ([4]; human, Caco-2, pH 7.4, Mean Papp (10^−6 cm/s) A to B) does the source give for COCCc1ccc(OCC(O)CNC(C)C)cc1 (stereo not drawn) [metoprolol, reference compound] here?
The Papp A→B at 2 h, 2 μM was 14.7 ×10⁻⁶ cm/s.

What about the recovery at 2 h, 2 μM ([4]; human, Caco-2, pH 7.4, Mean Recovery (%) A to B) of the same compound?
Its recovery at 2 h, 2 μM is 95.4%.

What does the source list for CP(=O)(O)CSc1nc2nc(-c3ccc(-c4ccccc4O)cc3)c(Cl)cc2[nH]1 [Compound 2, (((6-chloro-5-(2′-hydroxy-[1,1′-biphenyl]-4-yl)-1H-imidazo[4,5-b]pyridin-2-yl)thio)methyl)(methyl)phosphinic Acid]?
EC50 [1]: 0.97 nM; activation at 10 µM [1]: 47%; bioavailability [2]: < 1%
